Measured values taken from patent EP4501112A1, “PLANT DEFENSE ELICITORS” (Globachem NV, priority 2023, dated 2025).
Like-named read-outs stand apart in the source and are kept apart here.

Experiments:
Type in all cases: in vivo
[1] = system: Winter wheat (cv. Keitum); experiment: Biostimulant effect of seed coating on winter wheat (greenhouse, root scans)
Description: [table] Table 13. Biostimulant effect of ammonium pelargonate on winter wheat (cv. Keitum) 14 days after sowing

[2] = system: Root knot nematode (Meloidogyne graminicola); experiment: Root knot nematode gall development on wheat roots after treatment; settings: foliar spraying, stock solution 200 x diluted; 400 J2 per plant 24 hours after treatment; 14 days after inoculation
Procedure: DISEASE/PEST: Root knot nematode (Meloidogyne graminicola) CROP: Triticum aestivum APPLICATION: Foliar application EXPERIMENT/TRIAL PROTOCOL: After seed germination, wheat plants were grown individually for 2 weeks in a PVC tube (18 cm height, 3 cm diameter) filled with a substrate of sand and a water-absorbing polymer (DCM Aquaperla). Plants were grown at 24 °C and supplied with Hoagland solution and water 3 times per week. They were treated after 2 weeks. Twenty-four hours after treatment they were inoculated with 400 nematode juveniles (second stage; J2) per plant. 8 individual plants were analyzed per treatment. Evaluation of nematode infection was done 14 days after inoculation. Development of galls on the roots was microscopically observed and counted. No females were observed yet at this early time point, in any of the treatments. The number of galls was reduced in the […], pelargonic acid ([…] decanoic acid (pm4) treated plants. Azelaic acid (pm3) had no effect on gall numbers in the used concentration. FORMULATION USED: […] PM1 is already formulated.

Leptosphaeria maculans = experiment: Seed treatment lab trial against Leptosphaeria maculans in oilseed rape seedlings; settings: for Emax: Plenodomus lingam, in Brassica napus, 144 h, 6 days after inoculation, read-out: % Efficacy
Description: [table] Table 8: Efficacy assessment of fatty acids in seed treatment of Leptosphaeria maculans in oilseed rape (variety Helga)

Fusarium culmorum = experiment: whole plant or invertebrate; settings: for Emax: Fusarium culmorum, in Triticum aestivum, 144 h, read-out: % Efficacy
Spodoptera exigua = experiment: S. exigua survival, larval weight and leaf damage on pea plants after foliar spray; parameters: key to plant damage (1 to 5 scale): 0=no damage or no sucking observed; 1=some damage or some sucking observed; 3=half leaf eaten or half of aphids sucking the leaf; 5=no leaf left or all insects sucking and reproducing; settings: 0.016 g in 5 mL water with 0.25% tween 20, foliar
Procedure: DISEASE/PEST: Spodoptera exigua CROP: pea plants (Pisum sativum) APPLICATION: FOLIAR EXPERIMENT/TRIAL PROTOCOL: Peas were grown in pots in the greenhouse (4 plants/pot). […] Plants were sprayed with a small handheld sprayer. 5 ml of spraying volume was applied. First instar (L1) Spodoptera larvae were added to the plants 24h after the treatment. Plant damage, larval survival and larval weight were followed up for 12 days. […] Table 4. Effect on survival and leaf damage of S. exigua on P. sativum.

[3] = seed coating 2 L/mt, 14 days after sowing
[4] = seed coating 2 L/mt, 14 days after sowing, relative to untreated check

CCCCCCCCC(=O)O.N [Ammonium pelargonate]
root length, surface and volume, tips and forks per plant ([1]; coated seeds compared with untreated seedlings): Seeds coated with ammonium pelargonate showed an increase in root length, surface and volume and an increase in tips and forks per plant. (Table 12)
Forks (#/plant) [1, 3]: 330.70 #/plant
Fresh weight (g/plant) [1, 3]: 0.53 g/plant
Plant height (cm) [1, 3]: 22.5 cm
Root diameter (mm) [1, 3]: 0.27 mm
Root length (cm) [1, 3]: 142.1 cm
Root surface (cm^2) [1, 3]: 11.90 cm^2
Root volume (cm^3) [1, 3]: 0.08 cm^3
Tillers (#/plant) [1, 3]: 0.40 #/plant
Tips (#/plant) [1, 3]: 1585.20 #/plant
Forks (%UNCK) [1, 4]: 146.65 %UNCK
Fresh weight (%UNCK) [1, 4]: 99.81 %UNCK
Plant height (%UNCK) [1, 4]: 100.9 %UNCK
Root diameter (%UNCK) [1, 4]: 95.08 %UNCK
Root length (%UNCK) [1, 4]: 131.5 %UNCK
Root surface (%UNCK) [1, 4]: 124.21 %UNCK
Root volume (%UNCK) [1, 4]: 117.23 %UNCK
Tips (%UNCK) [1, 4]: 120.36 %UNCK

O=C(O)CCCCCCCC(=O)O [Azaleic acid, Azelaic acid]
number of galls [2]: no effect
Emax (Leptosphaeria maculans; seed treatment 1.52 g/ton): 100%
Emax (Leptosphaeria maculans; seed treatment 2.28 g/ton): 100%
Emax (Leptosphaeria maculans; seed treatment 3.04 g/ton): 100%
Emax (Leptosphaeria maculans; seed treatment 4.56 g/ton): 80%
Emax (Leptosphaeria maculans; seed treatment 6.08 g/ton): 80%
Emax (Leptosphaeria maculans; seed treatment 7.60 g/ton): 80%

CCCCCCCC(=O)O [Caprylic acid, caprylic acid]
number of galls [2]: reduced
Emax (Fusarium culmorum; seed treatment 6.08 g/ton): 80%
Emax (Fusarium culmorum; seed treatment 7.60 g/ton): 80%
Emax (Leptosphaeria maculans; seed treatment 7.60 g/ton): 80%

CCCCCCCCCC(=O)O [Decanoic acid, decanoic acid]
Larval weight at day 12 (Spodoptera exigua; L1 larvae added 24h after treatment): 196 mg
Number of larvae after 12 days (Spodoptera exigua; L1 larvae added 24h after treatment, 22 larvae at start): 18
plant damage (1 to 5 scale) (Spodoptera exigua; followed up for 12 days): 1
number of galls [2]: reduced
Emax (Fusarium culmorum; seed treatment 4.56 g/ton): 60%
Emax (Fusarium culmorum; seed treatment 6.08 g/ton): 60%
Emax (Fusarium culmorum; seed treatment 7.60 g/ton): 80%
Emax (Leptosphaeria maculans; seed treatment 2.28 g/ton): 80%

Ammonium percholate
% efficacy (Fusarium culmorum; in vivo): 60%
% efficacy (Leptosphaeria maculans; in vivo): 70%
